Measurements as given in US20230192617A1, “AZABICYCLIC(THIO)AMIDES AS FUNGICIDAL COMPOUNDS” (Bayer CropScience Aktiengesellschaft, priority 2020, published 2023).

What was measured:
Alternaria alternata = Alternaria alternata in vitro cell test; type: cell-based; settings: 120 h, 20 ppm of active ingredient, liquid culture, 5 days incubation, spectrometric measurement of mycelium growth, read-out: efficacy (inhibition of fungal growth)
Method in brief: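 Liquid culture assay in which A. alternata spores in medium received DMSO-solubilized compound (final DMSO ≤1%). After 5 days, mycelium growth was measured spectrometrically. Inhibition was calculated against fungicide-free control wells.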

[1] = Measurement of Log P values by HPLC on reversed phase columns (EEC directive 79/831 Annex V.A8); type: physicochemical; settings: reversed phase HPLC column, method [a]: LC-UV, acidic range, 0.1% formic acid in water and acetonitrile as eluent
Method in brief: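 Reversed-phase HPLC with UV detection per EEC 79/831 Annex V.A8, linear 10–95% acetonitrile gradient. Aqueous eluent: 0.1% formic acid (acidic), 0.001 M ammonium acetate (neutral), or 0.1% phosphoric acid (acidic); multiple values in one method joined by "+".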

Sphaerotheca fuliginea = test: In vivo preventive test on Sphaerotheca fuliginea (powdery mildew on cucurbits); settings: Podosphaera fuliginea, 192 h; 500 ppm of active ingredient; preventive spray on gherkin; evaluated 8 days after inoculation; read-out: efficacy
Method in brief: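 Young gherkin plants were sprayed with compound in DMSO/acetone/Tween 80 diluted in water. They were inoculated 24 h later with a spore suspension of Sphaerotheca fuliginea. Plants were then kept for 8 days at 20 °C and 70–80% relative humidity.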

Botrytis cinerea [2] = test: B-11. Botrytis cinerea in vitro cell test; type: cell-based; settings: 144 h, 20 ppm of active ingredient, 6 days incubation, liquid culture, absorbance, read-out: efficacy (inhibition of fungal growth)
Method in brief: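 B. cinerea spores were grown in liquid culture with compound (DMSO ≤1% final). Mycelium growth was measured spectrometrically after 6 days, with inhibition taken as absorbance relative to untreated control wells.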

[3] = system: Colletotrichum lindemuthianum; test: B-8. Colletotrichum lindemuthianum in vitro cell test; type: cell-based; settings: 144 h, 20 ppm of active ingredient, 6 days incubation, liquid culture, absorbance, read-out: efficacy (inhibition of fungal growth)
Method in brief: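 Spore suspension of C. lindemuthianum in liquid medium exposed to DMSO-solubilized compounds (final DMSO ≤1%) for 6 days. Mycelial growth read by absorbance, with inhibition calculated relative to compound-free control wells.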

Pyrenophora teres = test: B-10. Pyrenophora teres in vitro cell test; type: cell-based; settings: 144 h, 20 ppm of active ingredient, 6 days incubation, liquid culture, absorbance, read-out: efficacy (inhibition of fungal growth)
Method in brief: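 Liquid-culture assay on a P. teres spore suspension with compounds added to the medium from DMSO solutions, final DMSO ≤1%. Mycelium growth read spectrometrically after 6 days. Inhibition calculated from absorbance against untreated control wells.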

Alternaria brassicae = test: In vivo preventive test on Alternaria brassicae (leaf spot on radish or cabbage); settings: 500 ppm of active ingredient, preventive spray on radish or cabbage, evaluated 3 to 4 days after inoculation, read-out: efficacy
Method in brief: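 Young radish or cabbage plants were sprayed with compound dissolved in DMSO/acetone/Tween 80 and diluted in water; controls received solvent only. Inoculation by spraying A. brassicae spore suspension 24 h later, then 3–4 days at 20 °C and 100% relative humidity.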

Botrytis cinerea [4] = test: In vivo preventive test on Botrytis cinerea (grey mould); settings: 500 ppm of active ingredient, preventive spray on gherkin or cabbage, evaluated 4 to 5 days after inoculation, read-out: efficacy
Method in brief: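 Young gherkin or cabbage plants were sprayed with compound in DMSO/acetone/Tween 80 diluted in water, then inoculated 24 hours later with a B. cinerea spore suspension. Incubation lasted 4 to 5 days: gherkin at 17° C., 90% relative humidity; cabbage at 20° C., 100% relative humidity.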

Row | chromatographic logP [1] | Structure (SMILES) | inhibition at 20 ppm (Alternaria alternata) [%] | pest or weed control at 500 ppm (Sphaerotheca fuliginea) [%] | inhibition at 20 ppm (Botrytis cinerea [2]) [%] | inhibition at 20 ppm [3] [%] | inhibition at 20 ppm (Pyrenophora teres) [%] | pest or weed control at 500 ppm (Alternaria brassicae) [%] | pest or weed control at 500 ppm (Botrytis cinerea [4]) [%]
1 | 3.94 | O=C(NCC(F)(F)c1ccc(Br)cc1Cl)c1c(Oc2cccc(C(F)(F)F)c2)nnc2c1COCC2 [I-229] | 90 to 100 | 90 to 100 | 90 to 100 | 90 to 100 | 90 to 100 | 90 to 100 | 90 to 100
2 | 4.05 | Cc1ccc(C(F)(F)CNC(=O)c2c(Oc3cccc(C(F)(F)F)c3)nnc3c2CCCC3)c(Cl)c1 [I-239] | 90 to 100 | 90 to 100 | 90 to 100 | 90 to 100 | 90 to 100 | 90 to 100 | 90 to 100
3 | 3.63 | Cc1ccc(C(F)(F)CNC(=O)c2c(Oc3cccc(C(F)F)c3)nnc3c2CCCC3)c(Cl)c1 [I-243] | 90 to 100 | 90 to 100 | 90 to 100 | 90 to 100 | 90 to 100 | 90 to 100 | 90 to 100
4 | 4.7 | Cc1ccc(C(F)(F)CNC(=O)c2c(Oc3cccc(C(F)(F)F)c3)nnc3cc(C)ccc23)c(Cl)c1 [I-245] | 90 to 100 | 90 to 100 | 90 to 100 | 90 to 100 | 90 to 100 | 90 to 100 | 90 to 100
5 | 4.66 | Cc1ccc2c(C(=O)NCC(F)(F)c3ccc(C)c(C)c3)c(Oc3cccc(C(F)(F)F)c3)nnc2c1 [I-246] | 90 to 100 | 90 to 100 | 90 to 100 | 90 to 100 | 90 to 100 | 90 to 100 | 90 to 100
